Laboratory results reported in patent publication US20020037872A1, “N6 heterocyclic 5' modified adenosine derivatives” (CV Therapeutics, Inc., priority 1999, published 2002).
Like-named read-outs stand apart in the source and are kept apart here.

Legend:
A1 receptor = molecular target: T1, A1 receptor (Mesocricetus auratus, UniProt A0A1U8BVR4); test: Competitive binding assay, DDT1 cell membranes, [3H]CCPA; set-up: species or system hamster; conditions: [3H]CCPA 2 nM
T1 construct: endogenous in cells; host or cells: DDT1 (DDT1 MF-2) hamster vas deferens smooth muscle cells
T1 sequence (A0A1U8BVR4 1-326): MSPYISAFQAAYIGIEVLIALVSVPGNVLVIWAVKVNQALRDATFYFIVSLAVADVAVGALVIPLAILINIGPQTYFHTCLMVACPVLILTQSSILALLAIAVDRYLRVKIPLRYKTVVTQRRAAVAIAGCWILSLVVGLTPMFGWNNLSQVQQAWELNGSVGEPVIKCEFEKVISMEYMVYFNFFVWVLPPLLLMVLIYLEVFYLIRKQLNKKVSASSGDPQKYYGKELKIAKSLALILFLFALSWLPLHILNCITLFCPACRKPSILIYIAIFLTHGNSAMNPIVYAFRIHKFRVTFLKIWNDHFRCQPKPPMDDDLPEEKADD
Protocol: Cells were subcultured twice weekly by dispersion in Hank's Balanced Salt Solution (HBSS) without the divalent cations and containing 1 mM EDTA. The cells were then seeded in growth medium at a density of 1.2×10^5 cells per plate and experiments were performed 4 days later at approximately one day preconfluence.
(§1) Attached cells were washed twice with HBSS (2×10 ml), scraped free of the plate with the aid of a rubber policeman in 5 ml of 50 mM Tris-HCI buffer pH 7.4 at 4° C. and the suspension homogenized for 10 s. The suspension was then centrifuged at 27,000×g for 10 min. The pellet was resuspended in homogenization buffer by vortexing and centrifuged as described above. The final pellet was resuspended in 1 vol of 50 mM Tris-HCI buffer pH 7.4 containing 5 mM MgCl2 for A1 AdoR assays. For the [^35S]GTPγS binding assay the final pellet was resuspended in 50 mM Tris-HCI pH 7.4 containing 5 mM MgCl2, 100 mM NaCl and 1 mM dithiothreitol. This membrane suspension was then placed in liquid nitrogen for 10 min, thawed and used for assays.
Competitive Binding Assay Pig striatum were prepared by homogenation in 50 mM Tris buffer (5× volume of tissue mass pH=7.4). After centrifilgation at 19,000 rpm for 25 minutes at 4° C., the supernatant was discarded, and the process was repeated twice. Compositions of this invention were assayed to determine their affinity for the A1 receptor in a pig striatum membrane prep or a DDT, membrane prep. Briefly, 0.2 mg of pig striatal membranes or DDT, cell membranes were treated with adenosine deaminase and 50 mM Tris buffer (pH=7.4) followed by mixing. To the pig membranes was added 2 μL of serially diluted DMSO stock solution of the compounds of this invention at concentrations ranging from 100 microM to 10 nM. The control received 2 microL of DMSO alone, then the antagonist [^3H] 8-cyclopentylxanthine (CPX) for pig striatum or the agonist [^3H] 2-chloro-6-cyclopentyladenosine (CCPA) for DDT, membranes in Tris buffer (50 mnM, pH of 7.4) was added to achieve a final concentration of 2 nM. After incubation at 23 C for 2 h, the solutions were filtered using a membrane harvester using multiple washing of the membranes (3×). The filter disks were counted in scintillation cocktail affording the amount of displacement of triated CPX or by the competitive binding compositions of this invention. In the case of the DDT1 cell membranes, some of the determinations of binding affinity (Ki) were made in the presence of Gpp(NH)p as noted in Table 1 (note: Gpp(NH)p shifts the receptor to a low affinity form). Greater than a 5 point curve was used to generate Ki's and the number of experiments is indicated in the column marked in Table 1 below.

A1 adenosine receptor = molecular target: T2, A1 adenosine receptor (Mesocricetus auratus, UniProt A0A1U8BVR4); test: [35S]GTPγS binding assay, A1-agonist stimulated; assay type: biochemical, hamster; conditions: agonist stimulated [35S]GTPγS binding, CPA = 100%
T2 construct: endogenous in cells; host or cells: DDT1 (DDT1 MF-2) hamster vas deferens smooth muscle cells
T2 sequence (A0A1U8BVR4 1-326): T1 sequence (A0A1U8BVR4 1-326)
Protocol: as §1, with “for assays. The protein content was determined by the method of Bradford (1976) using bovine serum albumin as standard.” for “for assays.”
A1-agonist stimulated [^35S]GTPγS binding was determined by a modification of the method described by Giersckik et al. (1991) and Lorenzen et al. (1993). […] Nonspecific binding was determined by the addition of 10 μM GTPγS. […] Previous reports have shown that agonist stimulated [^35S]GTPγS binding was dependent on the presence of GDP (Gierschik et al., 1991; Lorenzen et al., 1993; Traynor & Nahorski, 1995). […] In saturation experiments, 0.5 nM [^35S]GTPγS was incubated with 0.5-1000 nM GTPγS. At the end of the incubation, each suspension was filtered and the retained radioactivity determined as described above.

[1] = DDT1 cell membranes, read-out: Ki-DDT1 cell membrane
[2] = in presence of Gpp(NH)p (low affinity form), read-out: Ki - DDT1 cell membrane In presence of Gpp (NH)p

SMILES | Ki (A1 receptor; [1]) [µM] | Emax (A1 adenosine receptor) [%] | Ki (A1 receptor; [2]) [µM] | GTPγS (A1 adenosine receptor) [%]
CNC(=O)OC[C@H]1O[C@@H](n2cnc3c(N[C@@H]4CCOC4)nc(Cl)nc32)[C@H](O)[C@@H]1O [Compound 13, [(5-{6-[((3R)oxolan-3-yl)amino]-2-chloropurin-9-yl}(3S,2R,4R,5R)3,4dihydroxyoxolan-2-yl)methoxy]-N-methylcarboxamide] | 0.129 | 77 | – | –
CNC(=O)SC[C@H]1O[C@@H](n2cnc3c(N[C@@H]4CCOC4)ncnc32)[C@H](O)[C@@H]1O [Compound 22, [(5-{6-[((3R)oxolan-3-yl)amino]purin-9-yl}(2S,3S,4R,5R)-3,4&hydroxyoxolan-2-yl)methythio]-N-methylcarboxamide] | 0.036 | 98 | – | –
CCNC(=O)OC[C@H]1O[C@@H](n2cnc3c(N[C@@H]4CCOC4)ncnc32)[C@H](O)[C@@H]1O [Compound 25, [(5-{6-[((3R)oxolan-3-yl)amino]purin-9-yl}(3S,2R,4R,5R)-3,4-dihydroxyoxolan-2-yl)methoxy]-N-ethylcarboxamide] | – | – | 0.727 | –
CCCNC(=O)OCC1OC(n2cnc3c(N[C@@H]4CCOC4)ncnc32)C(O)C1O (stereo partly drawn) [Compound 26] | – | 73 | 0.513 | –
CCCCNC(=O)OCC1OC(n2cnc3c(N[C@@H]4CCOC4)ncnc32)C(O)C1O (stereo partly drawn) [Compound 27] | 1.61 | 44 | 0.111 | –
O=C(NC1CCCC1)OCC1OC(n2cnc3c(N[C@@H]4CCOC4)ncnc32)C(O)C1O (stereo partly drawn) [Compound 28] | 0.032 | – | 0.808 | –
O=C(NCc1ccccc1)OC[C@H]1O[C@@H](n2cnc3c(N[C@@H]4CCOC4)ncnc32)[C@H](O)[C@@H]1O [Compound 29, [(5-{6-[((3R)oxolan-3-yl)amino]purin-9-yl}(3S,2R,4R,5R)-3,4dihydroxyoxolan-2-yl)methoxy]-N-benzylcarboxamide] | – | – | 0.478 | –
O=C(NCc1ccc(F)cc1)OCC1OC(n2cnc3c(N[C@@H]4CCOC4)ncnc32)C(O)C1O (stereo partly drawn) [Compound 30] | 2.21 | – | 1.73 | –
O=C(NC1CCCCC1)OC[C@H]1O[C@@H](n2cnc3c(N[C@@H]4CCOC4)ncnc32)[C@H](O)[C@@H]1O [Compound 31, {(5-{6-[((3R)oxolan-3-yl)amino]purin-9-yl}(3S,2R,4R,5R)3,4-dihydroxyoxolan-2-yl)methoxy]-N-cyclohexylcarboxamide] | – | – | 1.09 | –
CC(C)NC(=O)OCC1OC(n2cnc3c(N[C@@H]4CCOC4)ncnc32)C(O)C1O (stereo partly drawn) [Compound 32] | – | 91 | 0.431 | –
O=C(NC1CC1)OCC1OC(n2cnc3c(N[C@@H]4CCOC4)ncnc32)C(O)C1O (stereo partly drawn) [Compound 33] | – | – | 1.71 | –
CN(C)C(=O)OC[C@H]1O[C@@H](n2cnc3c(N[C@@H]4CCOC4)ncnc32)[C@H](O)[C@@H]1O [Compound 44, {(5-{6-[((3R)oxolan-3-yl)amino]purin-9-yl}(3S,2R,4R,5R)-3,4-dihydroxyoxolan-2-yl)methoxy]-N,N-dimethylcarboxamide] | – | – | 1.84 | –
CNC(=S)OC[C@H]1O[C@@H](n2cnc3c(N[C@@H]4CCOC4)ncnc32)[C@H](O)[C@@H]1O [Compound 45, 2-{6-[((3R)oxolan-3-yl)amino]purin-9-yl}(4S,2R,3R,5R)-5 {1(methylamino)thioxomethoxylmethyl}oxolane3,4diol] | – | 77 | 0.141 | –
CCNC(=S)OC[C@H]1O[C@@H](n2cnc3c(N[C@@H]4CCOC4)ncnc32)[C@H](O)[C@@H]1O [Compound 46, 2-{6[((3R)oxolan-3-yl)amino]purin-9-yl}(4S,2R,3R,5R)-5-{[(ethylamino)thioxomethoxy]methyl}oxolane3,4diol] | – | 77 | 0.135 | –
CC(C)NC(=S)OC[C@H]1O[C@@H](n2cnc3c(N[C@@H]4CCOC4)ncnc32)[C@H](O)[C@@H]1O [Compound 47, 2-{6-[((3R)oxolan-3-yl)amino]purin-9-yl}(4S,2R,3R,5R)-5({[(methylethyl)amino]thioxomethoxy}methyl)oxolane3,4-diol] | – | 84 | 0.109 | –
CCCCNC(=S)OCC1OC(n2cnc3c(N[C@@H]4CCOC4)ncnc32)C(O)C1O (stereo partly drawn) [Compound 48] | – | 70 | 0.926 | –
CCCNC(=S)OC[C@H]1O[C@@H](n2cnc3c(N[C@@H]4CCOC4)ncnc32)[C@H](O)[C@@H]1O [Compound 49, 2-{6-[((3R)oxolan-3-yl)amino]purin-9-yl}(4S,2R,3R,5R)-5 {[(propylamino)thioxomethoxy]methyl}oxolane3,4-diol] | – | 89 | 0.145 | –
OC1C(COC(=S)N2CCCCC2)OC(n2cnc3c(N[C@@H]4CCOC4)ncnc32)C1O (stereo partly drawn) [Compound 50] | 0.642 | 88 | 1.95 | –
O[C@@H]1[C@H](O)[C@@H](COC(=S)NC2CCCC2)O[C@H]1n1cnc2c(N[C@@H]3CCOC3)ncnc21 [Compound 51, 2-{6-[((3R)oxolan-3-yl)amino]purin-9-yl}(4S,2R,3R,5R)-5{[(cyclopentylamino)thioxomethoxy]methyl}oxolane3,4-diol] | – | – | 0.087 | –
O[C@@H]1[C@H](O)[C@@H](COC(=S)N2CCCC2)O[C@H]1n1cnc2c(N[C@@H]3CCOC3)ncnc21 [Compound 52] | – | – | 1.12 | 77
CN(C)C(=S)OC[C@H]1O[C@@H](n2cnc3c(N[C@@H]4CCOC4)ncnc32)[C@H](O)[C@@H]1O [Compound 53, 2-{6-[((3R)oxolan-3-yl)amino]purin-9-yl}(4S,2R,3R,5R)-5-{[(dimethylamino)thioxomethoxy]methyl}oxolane-3,4-diol] | 0.245 | 85 | 2.11 | –
O=C(O)CNC(=O)OC[C@H]1O[C@@H](n2cnc3c(N[C@@H]4CCOC4)ncnc32)[C@H](O)[C@@H]1O [Compound 68, 2-{[(5-{6-[((3R)oxolan-3-yl)amino]purin-9-yl}(3S,2R,4R,5R)-3,4-dihydroxyoxolan-2-yl)methoxy]carbonylamino}acetic acid] | – | 76 | – | –
O=C(NC[C@H]1O[C@@H](n2cnc3c(N[C@@H]4CCOC4)ncnc32)[C@H](O)[C@@H]1O)NC1CCCC1 [Compound 76, N-[(5-{6[((3R)oxolan-3yl)amino]purin-9-yl}(3S,2R,4R,5R)3,4-dihydroxyoxolan-2-yl)methyl](cyclopentylamino)carboxamide] | 11.6 | – | – | –
CCNC(=O)NCC1OC(n2cnc3c(NC4CCOC4)ncnc32)C(O)C1O [Compound 79, N-[(5-{16[((3R)oxolan-3-yl)amino]purin-9-yI}(3S,2R,4R,5R3,4-dihydroxyoxolan-2-yl)methyl](ethylamino)carboxamide] | – | – | 0.167 | –
